Counter-ions that a name gives are not always drawn.
What was measured:
rat B1R = biological target: T1, rat B1R (Rattus norvegicus, UniProt P97583); test: FLIPR Ca2+ functional study on bradykinin receptor 1 (rB1R CHO K1 cells); format: cell-based; settings: for inhibition at 10 µM: CHO-K1, % inhibition rat B1R at 10 μM, read-out: % inh. (rat B1R) 10 μM; for % inh. (rat B1R) 10 μM: % inhibition rat B1R at 10 μM
T1 construct: expressed in transfected cells; host or cells: CHO K1 cells
T1 sequence (P97583 1-337): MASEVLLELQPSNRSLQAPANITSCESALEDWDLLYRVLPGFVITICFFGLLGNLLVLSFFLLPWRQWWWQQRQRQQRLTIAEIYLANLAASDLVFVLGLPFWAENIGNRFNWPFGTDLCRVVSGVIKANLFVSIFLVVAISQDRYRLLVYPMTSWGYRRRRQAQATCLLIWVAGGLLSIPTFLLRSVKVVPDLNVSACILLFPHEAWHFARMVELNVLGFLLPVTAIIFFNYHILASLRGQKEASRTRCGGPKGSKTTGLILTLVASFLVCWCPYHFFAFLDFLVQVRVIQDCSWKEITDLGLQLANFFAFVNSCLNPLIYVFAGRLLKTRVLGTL
Summary of the method: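 Antagonism was calculated as % of maximal inhibition of the Ca2+ rise triggered by agonist at EC80 (Lys-Des-Arg9-bradykinin for hB1R, Des-Arg9-bradykinin for rB1R), added 10-20 min after test compound (10 μM or serial dilutions for IC50) to Fluo-4-loaded transfected CHO K1 cells on FLIPR. Duplicates or triplicates, ≥2 independent runs.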

human B1R = biological target: T2, human B1R (Homo sapiens, UniProt P46663); test: FLIPR Ca2+ functional study on bradykinin receptor 1 (hB1R CHO K1 cells); format: cell-based; settings: % inhibition human B1R at 10 μM, read-out: % inh. (hum. B1R) 10 μM
T2 construct: expressed in transfected cells; host or cells: CHO K1 cells
T2 sequence (P46663 1-353): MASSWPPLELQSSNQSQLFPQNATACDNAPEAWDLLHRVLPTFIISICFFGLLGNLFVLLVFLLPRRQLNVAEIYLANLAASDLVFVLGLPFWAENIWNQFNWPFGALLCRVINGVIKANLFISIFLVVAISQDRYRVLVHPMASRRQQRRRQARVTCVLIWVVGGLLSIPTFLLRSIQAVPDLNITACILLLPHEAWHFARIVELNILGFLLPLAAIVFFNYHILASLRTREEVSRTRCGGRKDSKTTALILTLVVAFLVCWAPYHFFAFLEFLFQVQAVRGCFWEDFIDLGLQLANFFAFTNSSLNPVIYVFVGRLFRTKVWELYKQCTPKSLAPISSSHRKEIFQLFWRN
Method: The agonistic or antagonistic activity of substances can be quantified on the bradykinin receptor 1 (B1R) of the species human and rat using ectopically expressing cell lines (CHO K1 cells) and with the aid of a Ca^2+-sensitive dye (Fluo-4) using a fluorescent imaging plate reader (FLIPR). The indication in % activation is based on the Ca^2+ signal after addition of Lys-Des-Arg^9-bradykinin (0.5 nM) or Des-Arg^9-bradykinin (100 nM). Antagonists lead to suppression of the Ca^2+ influx after the addition of the agonist. % Inhibition compared with the maximum achievable inhibition is indicated.
The agonistic or antagonistic activity of substances can be determined on the bradykinin receptor 1 (B1R) of the species human and rat using the following assay. According to this assay, the Ca^2+ influx through the channel is quantified with the aid of a Ca^2+-sensitive dye (Fluo-4 type, Molecular Probes Europe BV, Leiden, Netherlands) using a Fluorescent Imaging Plate Reader (FLIPR, Molecular Devices, Sunnyvale, USA).
Chinese hamster ovary cells (CHO K1 cells) which have been stably transfected with the human B1R gene (hB1R cells) or with the B1R gene of the rat (rB1R cells) are used. For functional studies, the cells are plated out on black 96-well plates having a clear base (BD Biosciences, Heidelberg, Germany or Greiner, Frickenhausen, Germany) in a density of 20,000-35,000 cells/well. The cells are left overnight at 37° C. and with 5% CO2 in culture medium (hB1R cells: Nutrient Mixture Ham's F12, Gibco Invitrogen GmbH, Karlsruhe, Germany or DMEM, Sigma-Aldrich, Taufkirchen, Germany; rB1R cells: D-MEM/F12, Gibco Invitrogen GmbH, Karlsruhe, Germany), with 10 vol.% FBS (fetal bovine serum, Gibco Invitrogen GmbH, Karlsruhe, Germany or PAN Biotech GmbH, Aidenbach, Germany). On the following day, the cells are loaded for 60 minutes at 37° C. with 2.13 μM Fluo-4 (Molecular Probes Europe BV, Leiden, Netherlands) in HBSS buffer (Hank's buffered saline solution, Gibco Invitrogen GmbH, Karlsruhe, Germany) […] (Sigma-Aldrich, Taufkirchen, Germany) and 10 mM HEPES (Sigma-Aldrich, Taufkirchen, Germany). The plates are then washed twice with HBSS buffer, and HBSS buffer additionally containing 0.1% BSA (bovine serum albumin; Sigma-Aldrich, Taufkirchen, Germany), 5.6 mM glucose and 0.05% gelatin (Merck KGaA, Darmstadt, Germany) is added to the plates. After incubation for a further 20 minutes at room temperature, the plates are inserted into the FLIPR for Ca^2+ measurement. Alternatively, washing is carried out with buffer A (15 mM HEPES, 80 mM NaCl, 5 mM KCl, 1.2 mM CaCl2, 0.7 mM MgSO4, 2 g/l glucose, 2.5 mM probenecid) followed by loading with buffer A with added 2.5 μM Fluo-4 and 0.025% Pluronic F127 (Sigma-Aldrich, Taufkirchen, Germany). The cells are then washed twice with buffer A and incubated for 30 minutes at room temperature with buffer A additionally containing 0.05% BSA and 0.05% gelatin and are then inserted into the FLIPR for Ca^2+ measurement. The Ca^2+-dependent fluorescence is measured before and after the addition of substances (λex=488 nm, λem=540 nm). Quantification is carried out by measuring the highest fluorescence intensity (FC, fluorescence counts) over time.
The FLIPR protocol consists of two substance additions. Test substances (10 μM) are first pipetted onto the cells and the Ca^2+ influx is compared with the control (hB1R: Lys-Des-Arg^9-bradykinin>=50 nM; rB1R: Des-Arg^9-bradykinin 10 μM). This gives the activation in %, based on the Ca^2+ signal after addition of Lys-Des-Arg^9-bradykinin (>=50 nM) or Des-Arg^9-bradykinin (10 μM). After 10-20 minutes' incubation, Lys-Des-Arg^9-bradykinin (hB1R) or Des-Arg^9-bradykinin (rB1R) is applied in the concentration of the EC80, and the influx of Ca^2+ is likewise determined. Antagonists lead to suppression of the Ca^2+ influx. The % inhibition compared with the maximum achievable inhibition is calculated. […]

| Compound | inhibition at 10 µM (rat B1R) [%] | inhibition at 10 µM (human B1R) [%] | % inh. (rat B1R) 10 μM (rat B1R) [%] |
| --- | --- | --- | --- |
| COc1cc(C)c(S(=O)(=O)N2CCCCC2COc2nccc(N3CCC(CCN4CCCC4)CC3)n2)c(C)c1 (stereo not shown) [G_CC-003, 2-[[1-(4-methoxy-2,6-dimethylphenyl)sulfonyl-2-piperidinyl]methoxy]-4-[4-(2-1-pyrrolidinylethyl)-1-piperidinyl]pyrimidine] | 102 | 100 | – |
| COc1cc(C)c(S(=O)(=O)N2CCC[C@H]2COc2nccc(N3CCC4(CC3)CCN(c3ccc(F)cc3)C4=O)n2)c(C)c1 [G_CC-048, 3-(4-fluorophenyl)-8-[2-[[(2S)-1-(4-methoxy-2,6-dimethylphenyl)sulfonyl-2-pyrrolidinyl]methoxy]-4-pyrimidinyl]-3,8-diazaspiro[4.5]decan-4-one] | 96 | 28 | – |
| COc1cc(C)c(S(=O)(=O)N(C)CCOc2nccc(N3CCN(C4CCN(C)CC4)CC3)n2)c(C)c1 [G_CC-001, 4-methoxy-N,2,6-trimethyl-N-[2-[[4-[4-(1-methyl-4-piperidinyl)-1-piperazinyl]-2-pyrimidinyl]oxy]ethyl]benzenesulfonamide] | 97 | 98 | – |
| COc1cc(C)c(S(=O)(=O)N2CCC[C@H]2COc2nccc(N3CCC4(CCN(Cc5ccc(F)cc5)C4=O)CC3)n2)c(C)c1 [G_CC-051, 3-[(4-fluorophenyl)methyl]-8-[2-[[(2S)-1-(4-methoxy-2,6-dimethylphenyl)sulfonyl-2-pyrrolidinyl]methoxy]-4-pyrimidinyl]-3,8-diazaspiro[4.5]decan-4-one] | 98 | 38 | – |
| COc1cc(C)c(S(=O)(=O)N(C)C(COc2nccc(N3CCC(Oc4ccncc4)CC3)n2)c2ccccc2)c(C)c1 (stereo not shown) [G_CC-063, 4-methoxy-N,2,6-trimethyl-N-[1-phenyl-2-[[4-[4-(4-pyridyloxy)-1-piperidinyl]-2-pyrimidinyl]oxy]ethyl]benzenesulfonamide] | 101 | 28 | – |
| COc1cc(C)c(S(=O)(=O)N2CCC[C@H]2COc2nccc(N3CCC(O)(c4cccs4)CC3)n2)c(C)c1 [G_CC-021, 1-[2-[[(2S)-1-(4-methoxy-2,6-dimethylphenyl)sulfonyl-2-pyrrolidinyl]methoxy]-4-pyrimidinyl]-4-(2-thienyl)-4-piperidinol] | 105 | 36 | – |
| COc1cc(C)c(S(=O)(=O)N2CCC[C@H]2COc2nccc(N3CCN(C4CCN(C)CC4)CC3)n2)c(C)c1 [G_CC-036, 2-[[(2S)-1-(4-methoxy-2,6-dimethylphenyl)sulfonyl-2-pyrrolidinyl]methoxy]-4-[4-(1-methyl-4-piperidinyl)-1-piperazinyl]pyrimidine] | 102 | 75 | – |

Further lines, results first:

| inhibition at 10 µM (rat B1R) [%] | inhibition at 10 µM (human B1R) [%] | % inh. (rat B1R) 10 μM (rat B1R) [%] | Compound |
| --- | --- | --- | --- |
| 86 | 90 | – | Cc1ccc(Cl)c(S(=O)(=O)N(CCOc2nccc(N3CCC4(CCN(c5ccncc5)CC4)CC3)n2)C2CC2)c1Cl [Example G-021, 2,6-dichloro-N-cyclopropyl-3-methyl-N-[2-[4-(9-pyridin-4-yl-3,9-diazaspiro[5.5]undecan-3-yl)-pyrimidin-2-yl]oxy-ethyl]-benzenesulfonic acid amide] |
| – | 101 | 112 | COc1cc(C)c(S(=O)(=O)N(C)CCOc2nccc(N(C)CCN3CCC(c4ccccc4)(N(C)C)CC3)n2)c(C)c1 [Example G-003, N-[2-[[4-[2-(4-dimethylamino-4-phenyl-1-piperidinyl)ethyl-methylamino]-2-pyrimidinyl]oxy]ethyl]-4-methoxy-N,2,6-trimethylbenzenesulfonamide] |
| 104 | 92 | – | COc1cc(C)c(S(=O)(=O)N(CCCOc2nccc(N3CCC4(CCN(c5ccncc5)CC4)CC3)n2)C2CC2)c(C)c1 [Example G-025, N-cyclopropyl-4-methoxy-2,6-dimethyl-N-[3-[4-(9-pyridin-4-yl-3,9-diazaspiro[5.5]undecan-3-yl)-pyrimidin-2-yl]oxy-propyl]-benzenesulfonic acid amide] |
| 99 | 99 | – | COc1cc(C)c(S(=O)(=O)N2C[C@H](F)C[C@H]2COc2nccc(N3CCC4(CCN(c5ccncc5)CC4)CC3)n2)c(C)c1 [Example G-011, 3-[2-[[(2S,4R)-4-fluoro-1-(4-methoxy-2,6-dimethylphenyl)sulfonyl-2-pyrrolidinyl]methoxy]-4-pyrimidinyl]-9-(4-pyridyl)-3,9-diazaspiro[5.5]undecane] |
| 95 | 99 | – | COc1cc(C)c(S(=O)(=O)N(CCOc2nccc(N3CCC4(CCC(N5CCC5)CC4)CC3)n2)C2CC2)c(C)c1 [Example G-015, N-[2-[[4-[9-(1-azetidinyl)-3-azaspiro[5.5]undecan-3-yl]-2-pyrimidinyl]oxy]ethyl]-N-cyclopropyl-4-methoxy-2,6-dimethylbenzenesulfonamide hydrochloride] |
| 99 | 84 | – | COc1cc(C)c(S(=O)(=O)N(C)CCOc2nccc(N3CCC(CCN4CCCC4)CC3)n2)c(C)c1 [Example G-001, 4-methoxy-N,2,6-trimethyl-N-[2-[[4-[4-(2-1-pyrrolidinylethyl)-1-piperidinyl]-2-pyrimidinyl]oxy]ethyl]benzenesulfonamide] |
| – | 90 | 71 | COc1cc(C)c(S(=O)(=O)N(C)CCOc2ccnc(N(C)CCN3CCC(c4ccccc4)(N(C)C)CC3)n2)c(C)c1 [Example H-003, N-[2-[[2-[2-(4-dimethylamino-4-phenyl-1-piperidinyl)ethyl-methylamino]-4-pyrimidinyl]oxy]ethyl]-4-methoxy-N,2,6-trimethylbenzenesulfonamide] |

Reference: patent US8269000B2, “Substituted pyrimidine and triazine compounds” (Gruenenthal GmbH, priority 2008, dated 2012)
